Here are results for 18 molecules from patent US11180474B2 (BRISTOL-MYERS SQUIBB COMPANY, priority 2016, dated 2021).

Each structure is given as a SMILES string. Counter-ions that a name gives are not always drawn.

This test addresses T1, human TLR8 (Homo sapiens, UniProt Q9NR97).
T1 construct: host or cells: HEK-Blue cells
T1 sequence (Q9NR97 27-1041): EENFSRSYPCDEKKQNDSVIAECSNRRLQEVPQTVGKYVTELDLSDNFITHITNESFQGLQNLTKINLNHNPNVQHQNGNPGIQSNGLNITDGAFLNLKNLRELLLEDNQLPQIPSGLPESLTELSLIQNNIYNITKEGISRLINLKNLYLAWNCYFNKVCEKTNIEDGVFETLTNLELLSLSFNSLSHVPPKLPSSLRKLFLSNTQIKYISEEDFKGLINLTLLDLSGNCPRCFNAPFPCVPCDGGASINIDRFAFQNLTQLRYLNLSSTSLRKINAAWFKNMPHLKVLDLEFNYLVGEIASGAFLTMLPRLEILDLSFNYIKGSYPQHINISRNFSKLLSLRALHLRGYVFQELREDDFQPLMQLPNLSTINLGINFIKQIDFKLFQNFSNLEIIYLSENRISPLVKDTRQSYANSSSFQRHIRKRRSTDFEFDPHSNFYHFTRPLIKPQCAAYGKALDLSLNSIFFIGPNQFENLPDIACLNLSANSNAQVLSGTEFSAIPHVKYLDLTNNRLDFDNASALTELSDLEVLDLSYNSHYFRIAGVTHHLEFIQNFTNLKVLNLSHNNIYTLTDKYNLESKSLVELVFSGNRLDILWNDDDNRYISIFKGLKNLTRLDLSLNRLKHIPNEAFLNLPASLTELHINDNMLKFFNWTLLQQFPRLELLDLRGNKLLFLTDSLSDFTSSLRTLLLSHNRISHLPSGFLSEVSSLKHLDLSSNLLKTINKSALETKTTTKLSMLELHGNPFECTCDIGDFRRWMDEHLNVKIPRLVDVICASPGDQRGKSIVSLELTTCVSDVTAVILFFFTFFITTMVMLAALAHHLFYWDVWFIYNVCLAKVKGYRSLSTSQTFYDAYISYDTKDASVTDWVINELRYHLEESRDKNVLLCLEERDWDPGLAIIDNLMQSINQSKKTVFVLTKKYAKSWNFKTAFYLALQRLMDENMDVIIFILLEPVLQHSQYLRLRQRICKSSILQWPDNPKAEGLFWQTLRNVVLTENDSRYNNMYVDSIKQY
In words: TLR8 inhibition reporter assay (HEK-Blue cells, SEAP reporter, R848 stimulation). The test is classed as cell-based. The note with it: HEK-Blue cells overexpressing human TLR8, R848 15.9 μM. Put shortly:
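In this cell reporter format, test compounds at 0.05 nM-50 μM final incubate 22 h with seeded cells (TLR7 15000, TLR8 20,000 per well). SEAP read-out by HEK-Blue Detection medium yields % inhibition relative to agonist/DMSO and known-inhibitor wells.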
Molecule `COc1ccc(-c2[nH]c3ccc(C4CCN(C(=O)CCn5cccc5)CC4)cc3c2CC(F)(F)F)cc1OC` [Example 344, 1-(4-(2-(3,4-dimethoxyphenyl)-3-(2,2,2-trifluoroethyl)-1H-indol-5-yl)piperidin-1-yl)-3-(1H-pyrrol-1-yl)propan-1-one] displayed a concentration for half-maximal inhibition (IC50) of 1420 nM. Under `COc1ccc(-c2[nH]c3ccc(C4CCNCC4F)cc3c2C(C)C)cc1OC` (single isomer, unassigned) [Example 321, 2-(3,4-dimethoxyphenyl)-5-(3-fluoropiperidin-4-yl)-3-isopropyl-1H-indole] stands 21 nM; under `COc1ccc(-c2[nH]c3ccc(C4CCN(C(=O)CCN5CCCCC5)CC4)cc3c2CC(F)(F)F)cc1OC` [Example 330, 1-(4-(2-(3,4-dimethoxyphenyl)-3-(2,2,2-trifluoroethyl)-1H-indol-5-yl)piperidin-1-yl)-3-(piperidin-1-yl)propan-1-one], 84 nM; under `COc1ccc(-c2[nH]c3ccc(C4CCN(CC(=O)NCCS(=O)(=O)O)CC4)cc3c2CC(F)(F)F)cc1OC` [Example 386, 2-(2-(4-(2-(3,4-dimethoxyphenyl)-3-(2,2,2-trifluoroethyl)-1H-indol-5-yl)piperidin-1-yl)acetamido)ethane-1-sulfonic acid], 590 nM. For `COc1ccc(-c2[nH]c3ccc(C4CCN(CC(=O)NCCN5CCCC5)CC4)cc3c2CC(F)(F)F)cc1OC` [Example 375, 2-(4-(2-(3,4-dimethoxyphenyl)-3-(2,2,2-trifluoroethyl)-1H-indol-5-yl)piperidin-1-yl)-N-(2-(pyrrolidin-1-yl)ethyl)acetamide] the value was 117 nM; for `COc1ccc(-c2[nH]c3ccc(C4CCN(CC(=O)N(C)C5CCN(C)C5)CC4)cc3c2CC(F)(F)F)cc1OC` (stereo not drawn) [Example 370, 2-(4-(2-(3,4-dimethoxyphenyl)-3-(2,2,2-trifluoroethyl)-1H-indol-5-yl)piperidin-1-yl)-N-methyl-N-(1-methylpyrrolidin-3-yl)acetamide], 55 nM; for `COc1ccc(-c2[nH]c3ccc(C4CCN(C(=O)CCC(F)(F)F)CC4)cc3c2CC(F)(F)F)cc1OC` [Example 350, 1-(4-(2-(3,4-dimethoxyphenyl)-3-(2,2,2-trifluoroethyl)-1H-indol-5-yl)piperidin-1-yl)-4,4,4-trifluorobutan-1-one], 2050 nM. Consider `CCN(CC)C(=O)C1CCCN(CC(=O)N2CCC(c3ccc4[nH]c(-c5ccc(OC)c(OC)c5)c(C5CCOCC5)c4c3)CC2)C1` (stereo not drawn) [Example 391, 1-(2-(4-(2-(3,4-dimethoxyphenyl)-3-(tetrahydro-2H-pyran-4-yl)-1H-indol-5-yl)piperidin-1-yl)-2-oxoethyl)-N,N-diethylpiperidine-3-carboxamide], for which the IC50 turned out to be 356 nM. As to `COc1ccc(-c2[nH]c3ccc(C4CCN(CC(=O)NCCC5CCCN5C)CC4)cc3c2CC(F)(F)F)cc1OC` (stereo not drawn) [Example 360, 2-(4-(2-(3,4-dimethoxyphenyl)-3-(2,2,2-trifluoroethyl)-1H-indol-5-yl)piperidin-1-yl)-N-(2-(1-methylpyrrolidin-2-yl)ethyl) acetamide], it took 43 nM to reach half-maximal inhibition (IC50). `COc1ccc(-c2[nH]c3ccc(C4CCN(CC(=O)N5CC[C@@H](N(C)C)C5)CC4)cc3c2CC(F)(F)F)cc1OC` [Example 373, (R)-2-(4-(2-(3,4-dimethoxyphenyl)-3-(2,2,2-trifluoroethyl)-1H-indol-5-yl)piperidin-1-yl)-1-(3-(dimethylamino)pyrrolidin-1-yl)ethan-1-one] displayed an IC50 of 44 nM. With `COc1ccc(-c2[nH]c3ccc(C4CCN(CC(=O)NCCCN5CCCC5=O)CC4)cc3c2CC(F)(F)F)cc1OC` [Example 376, 2-(4-(2-(3,4-dimethoxyphenyl)-3-(2,2,2-trifluoroethyl)-1H-indol-5-yl)piperidin-1-yl)-N-(3-(2-oxopyrrolidin-1-yl)propyl)acetamide], the midpoint of inhibition, the IC50, lay at 65 nM. This IC50 and that of the molecule before are within 1.5-fold of each other. Under `COc1ccc(-c2[nH]c3ccc(C4CCN(CC(=O)N5CCN(c6ccncc6)CC5)CC4)cc3c2CC(F)(F)F)cc1OC` [Example 366, 2-(4-(2-(3,4-dimethoxyphenyl)-3-(2,2,2-trifluoroethyl)-1H-indol-5-yl)piperidin-1-yl)-1-(4-(pyridin-4-yl)piperazin-1-yl) ethan-1-one] stands 23 nM.

For the molecule `CCN(CCN(C)C)C(=O)CN1CCC(c2ccc3[nH]c(-c4ccc(OC)c(OC)c4)c(CC(F)(F)F)c3c2)CC1` [Example 372, 2-(4-(2-(3,4-dimethoxyphenyl)-3-(2,2,2-trifluoroethyl)-1H-indol-5-yl)piperidin-1-yl)-N-(2-(dimethylamino)ethyl)-N-ethylacetamide], the IC50 was found to be 25 nM. Molecule `COc1ccc(-c2[nH]c3ccc(C4CCN(CC(=O)NCCCCN5CCCC5)CC4)cc3c2CC(F)(F)F)cc1OC` [Example 388, 2-(4-(2-(3,4-dimethoxyphenyl)-3-(2,2,2-trifluoroethyl)-1H-indol-5-yl)piperidin-1-yl)-N-(4-(pyrrolidin-1-yl)butyl)acetamide] came in with an IC50 of 40 nM.

In the case of `COc1ccc(-c2[nH]c3ccc(C4CCN(C(=O)CCn5ccc6ccccc65)CC4)cc3c2CC(F)(F)F)cc1OC` [Example 337, 1-(4-(2-(3,4-dimethoxyphenyl)-3-(2,2,2-trifluoroethyl)-1H-indol-5-yl)piperidin-1-yl)-3-(1H-indol-1-yl)propan-1-one], the 50% inhibitory concentration (IC50) came out at 5080 nM. Under `CCc1c(-c2ccc(OC)c(OC)c2)[nH]c2cc(C)c(C3CCNCC3)cc12` [Example 396, 2-(3,4-dimethoxyphenyl)-3-ethyl-6-methyl-5-(piperidin-4-yl)-1H-indole, HCl] stands 295 nM; under `COc1ccc(-c2[nH]c3ccc(C4CCN(C(=O)CCC(=O)N(C)C)CC4)cc3c2CC(F)(F)F)cc1OC` [Example 346, 4-(4-(2-(3,4-dimethoxyphenyl)-3-(2,2,2-trifluoroethyl)-1H-indol-5-yl)piperidin-1-yl)-N,N-dimethyl-4-oxobutanamide], 529 nM; under `COc1ccc(-c2[nH]c3ccc(C4CCN(C(=O)C[C@H](C)O)CC4)cc3c2CC(F)(F)F)cc1OC` [Example 352, (S)-1-(4-(2-(3,4-dimethoxyphenyl)-3-(2,2,2-trifluoroethyl)-1H-indol-5-yl)piperidin-1-yl)-3-hydroxybutan-1-one], 765 nM.
